Data from ChEMBL document CHEMBL1137656, “Effects of serum on in vitro susceptibility testing of echinocandins” (Antimicrob Agents Chemother, 2007).
Numbered stars: 1 amine (or outer) side, 2 acyl side, 3 side chain; on linkers, the order of the positions; unused ones are H or OH. Bridge positions count the residues as written; N and C are the ends. Square brackets hold non-standard residues; d marks the D form. Peptide text beside a SMILES is read from it. * marks the point of attachment. hTyr(3S-OH,4S-OH,3'-OSO3H) = N[C@H](C(=O)O)[C@H](O)[C@@H](O)c1ccc(O)c(OS(=O)(=O)O)c1; pTerphenylCO(4''-OnC5H11) = CCCCCOc1ccc(-c2ccc(-c3ccc(C(=O)*)cc3)cc2)cc1; Orn(4R-OH,5R-OH) = O=C([C@H](C[C@@H](O)[C@@H](O)N[*:3])N[*:1])[*:2]; hTyr(3S-OH,4S-OH) = N[C@H](C(=O)O)[C@H](O)[C@@H](O)c1ccc(O)cc1; Pro(3S-OH,4S-Me) = C[C@H]1CN[C@H](C(=O)O)[C@H]1O; X1 = CCCCCOc1ccc(-c2cc(-c3ccc(C(=O)*)cc3)no2)cc1; Gln(3R-OH) = NC(=O)C[C@@H](O)[C@H](N)C(=O)O; Hyp = O=C(O)[C@@H]1C[C@@H](O)CN1

Experiments:
Type in all cases: functional
Aspergillus flavus [1] = test: Antifungal activity against Aspergillus flavus isolate 0001-061 after 24 hrs by CLSI M38-A broth microdilution method in presence of RPMI 1640 medium; conditions: isolate 0001-061, 24 h
Aspergillus flavus [2] = test: Antifungal activity against Aspergillus flavus isolate 0001-061 after 24 hrs by CLSI M38-A broth microdilution method in presence of 50% human serum; conditions: isolate 0001-061, 24 h
Aspergillus flavus [3] = test: Ratio of MIC50 for Aspergillus flavus isolate 0001-061 in presence of 50% human serum to MIC50 for Aspergillus flavus isolate 0001-061 in presence of RPMI 1640 medium
Pichia kudriavzevii [4] = test: Antifungal activity against Candida krusei isolate 0001-058 after 24 hrs by CLSI M27-A2 broth microdilution method in presence of RPMI 1640 medium; conditions: isolate 0001-058, 24 h
Pichia kudriavzevii [5] = test: Ratio of MIC50 for Candida krusei isolate 0001-058 in presence of 50% human serum to MIC50 for Candida krusei isolate 0001-058 in presence of RPMI 1640 medium
Pichia kudriavzevii [6] = test: Antifungal activity against Candida krusei isolate 0013-054 after 24 hrs by CLSI M27-A2 broth microdilution method in presence of RPMI 1640 medium; conditions: isolate 0013-054, 24 h
Pichia kudriavzevii [7] = test: Antifungal activity against Candida krusei isolate 0013-054 after 24 hrs by CLSI M27-A2 broth microdilution method in presence of 50% human serum; conditions: isolate 0013-054, 24 h
Pichia kudriavzevii [8] = test: Ratio of MIC50 for Candida krusei isolate 0013-054 in presence of 50% human serum to MIC50 for Candida krusei isolate 0013-054 in presence of RPMI 1640 medium
Pichia kudriavzevii [9] = test: Antifungal activity against Candida krusei ATCC 6258 after 24 hrs by CLSI M27-A2 broth microdilution method in presence of 50% human serum; conditions: ATCC 6258, 24 h
Pichia kudriavzevii [10] = test: Ratio of MIC50 for Candida krusei ATCC 6258 in presence of 50% human serum to MIC50 for Candida krusei ATCC 6258 in presence of RPMI 1640 medium
Candida albicans [11] = test: Antifungal activity against Candida albicans isolate 0012-025 after 24 hrs by CLSI M27-A2 broth microdilution method in presence of RPMI 1640 medium; conditions: isolate 0012-025, 24 h
Candida albicans [12] = test: Antifungal activity against Candida albicans isolate 0012-025 after 24 hrs by CLSI M27-A2 broth microdilution method in presence of 50% human serum; conditions: isolate 0012-025, 24 h
Candida albicans [13] = test: Antifungal activity against Candida albicans isolate 0021-076 after 24 hrs by CLSI M27-A2 broth microdilution method in presence of 50% human serum; conditions: isolate 0021-076, 24 h
Clavispora lusitaniae = test: Antifungal activity against Candida lusitaniae isolate 0015-049 after 24 hrs by CLSI M27-A2 broth microdilution method in presence of RPMI 1640 medium; conditions: isolate 0015-049, 24 h
Candida parapsilosis [14] = test: Antifungal activity against Candida parapsilosis isolate 0014-074 after 24 hrs by CLSI M27-A2 broth microdilution method in presence of 50% human serum; conditions: Lodderomyces parapsilosis, isolate 0014-074, 24 h
Candida parapsilosis [15] = test: Antifungal activity against Candida parapsilosis isolate 0011-013 after 24 hrs by CLSI M27-A2 broth microdilution method in presence of RPMI 1640 medium; conditions: Lodderomyces parapsilosis, isolate 0011-013, 24 h
Candida parapsilosis [16] = test: Ratio of MIC50 for Candida parapsilosis isolate 0011-013 in presence of 50% human serum to MIC50 for Candida parapsilosis isolate 0011-013 in presence of RPMI 1640 medium
Candida parapsilosis [17] = test: Antifungal activity against Candida parapsilosis isolate 0026-003 after 24 hrs by CLSI M27-A2 broth microdilution method in presence of RPMI 1640 medium; conditions: Lodderomyces parapsilosis, isolate 0026-003, 24 h
Candida parapsilosis [18] = test: Antifungal activity against Candida parapsilosis isolate 0036-030 after 24 hrs by CLSI M27-A2 broth microdilution method in presence of RPMI 1640 medium; conditions: Lodderomyces parapsilosis, isolate 0036-030, 24 h
Candida parapsilosis [19] = test: Ratio of MIC50 for Candida parapsilosis isolate 0036-030 in presence of 50% human serum to MIC50 for Candida parapsilosis isolate 0036-030 in presence of RPMI 1640 medium
Candida parapsilosis [20] = test: Antifungal activity against Candida parapsilosis ATCC 22019 after 24 hrs by CLSI M27-A2 broth microdilution method in presence of 50% human serum; conditions: Lodderomyces parapsilosis, ATCC 22019, 24 h
Nakaseomyces glabratus [21] = test: Antifungal activity against Candida glabrata isolate 0022-012 after 24 hrs by CLSI M27-A2 broth microdilution method in presence of 50% human serum; conditions: isolate 0022-012, 24 h
Nakaseomyces glabratus [22] = test: Ratio of MIC50 for Candida glabrata isolate 0022-012 in presence of 50% human serum to MIC50 for Candida glabrata isolate 0022-012 in presence of RPMI 1640 medium
Candida tropicalis [23] = test: Antifungal activity against Candida tropicalis isolate 0022-021 after 24 hrs by CLSI M27-A2 broth microdilution method in presence of RPMI 1640 medium; conditions: isolate 0022-021, 24 h
Candida tropicalis [24] = test: Ratio of MIC50 for Candida tropicalis isolate 0050-028 in presence of 50% human serum to MIC50 for Candida tropicalis isolate 0050-028 in presence of RPMI 1640 medium
Aspergillus terreus [25] = test: Antifungal activity against Aspergillus terreus isolate 0031-087 after 48 hrs by CLSI M38-A broth microdilution method in presence of RPMI 1640 medium; conditions: isolate 0031-087, 48 h
Aspergillus terreus [26] = test: Antifungal activity against Aspergillus terreus isolate 0031-087 after 48 hrs by CLSI M38-A broth microdilution method in presence of 50% human serum; conditions: isolate 0031-087, 48 h
Aspergillus niger [27] = test: Antifungal activity against Aspergillus niger isolate 0001-073 after 24 hrs by CLSI M38-A broth microdilution method in presence of RPMI 1640 medium; conditions: isolate 0001-073, 24 h
Aspergillus niger [28] = test: Antifungal activity against Aspergillus niger isolate 0001-073 after 24 hrs by CLSI M38-A broth microdilution method in presence of 50% human serum; conditions: isolate 0001-073, 24 h
Aspergillus fumigatus [29] = test: Antifungal activity against Aspergillus fumigatus isolate 0002-0016 after 24 hrs by CLSI M38-A broth microdilution method in presence of 50% human serum; conditions: isolate 0002-0016, 24 h
Aspergillus fumigatus [30] = test: Antifungal activity against Aspergillus fumigatus isolate 0020-018 after 24 hrs by CLSI M38-A broth microdilution method in presence of 50% human serum; conditions: isolate 0020-018, 24 h
Aspergillus fumigatus [31] = test: Antifungal activity against Aspergillus fumigatus isolate 0002-021 after 24 hrs by CLSI M38-A broth microdilution method in presence of RPMI 1640 medium; conditions: isolate 0002-021, 24 h
Aspergillus fumigatus [32] = test: Antifungal activity against Aspergillus fumigatus isolate 0002-021 after 24 hrs by CLSI M38-A broth microdilution method in presence of 50% human serum; conditions: isolate 0002-021, 24 h

| Compound | MIC50 (Aspergillus flavus [1]) | MIC50 (Aspergillus flavus [2]) | Ratio (Aspergillus flavus [3]) | MIC50 (Pichia kudriavzevii [4]) | Ratio (Pichia kudriavzevii [5]) | MIC50 (Pichia kudriavzevii [6]) | MIC50 (Pichia kudriavzevii [7]) | Ratio (Pichia kudriavzevii [8]) | MIC50 (Pichia kudriavzevii [9]) | Ratio (Pichia kudriavzevii [10]) | MIC50 (Candida albicans [11]) | MIC50 (Candida albicans [12]) | MIC50 (Candida albicans [13]) | MIC50 (Clavispora lusitaniae) | MIC50 (Candida parapsilosis [14]) | MIC50 (Candida parapsilosis [15]) | Ratio (Candida parapsilosis [16]) | MIC50 (Candida parapsilosis [17]) | MIC50 (Candida parapsilosis [18]) | Ratio (Candida parapsilosis [19]) | other results |
| --- | --- | --- | --- | --- | --- | --- | --- | --- | --- | --- | --- | --- | --- | --- | --- | --- | --- | --- | --- | --- | --- |
| CCCCCOc1ccc(-c2ccc(-c3ccc(C(=O)N[C@H]4C[C@@H](O)[C@@H](O)NC(=O)[C@@H]5[C@@H](O)[C@@H](C)CN5C(=O)[C@H]([C@@H](C)O)NC(=O)[C@H]([C@H](O)[C@@H](O)c5ccc(O)cc5)NC(=O)[C@@H]5C[C@@H](O)CN5C(=O)[C@H]([C@@H](C)O)NC4=O)cc3)cc2)cc1 [ANIDULAFUNGIN] ({pTerphenylCO(4''-OnC5H11)}-[Orn(4R-OH,5R-OH)]T[Hyp][hTyr(3S-OH,4S-OH)]T[Pro(3S-OH,4S-Me)]; lactam 1-C) | 4 µg/mL | 128 µg/mL | 32 | 0.0313 µg/mL | 32 | 0.125 µg/mL | 4 µg/mL | 32 | 2 µg/mL | 16 | 0.0156 µg/mL | 0.25 µg/mL | 128 µg/mL | 0.125 µg/mL | 0.25 µg/mL | 0.0313 µg/mL | 64 | 2 µg/mL | 1 µg/mL | 128 | MIC50 (Candida parapsilosis [20]): 64 µg/mL; MIC50 (Nakaseomyces glabratus [21]): 1 µg/mL; Ratio (Nakaseomyces glabratus [22]): 32; MIC50 (Candida tropicalis [23]): 0.0156 µg/mL; Ratio (Candida tropicalis [24]): 128; MIC50 (Aspergillus terreus [25]): 0.0156 µg/mL; MIC50 (Aspergillus terreus [26]): 0.25 µg/mL; MIC50 (Aspergillus niger [27]): 0.001 µg/mL; MIC50 (Aspergillus niger [28]): 0.5 µg/mL; MIC50 (Aspergillus fumigatus [29]): 128 µg/mL; MIC50 (Aspergillus fumigatus [30]): 128 µg/mL; MIC50 (Aspergillus fumigatus [31]): 0.002 µg/mL; MIC50 (Aspergillus fumigatus [32]): 128 µg/mL |
| CCCCCOc1ccc(-c2cc(-c3ccc(C(=O)N[C@H]4C[C@@H](O)[C@@H](O)NC(=O)[C@@H]5[C@@H](O)[C@@H](C)CN5C(=O)[C@H]([C@H](O)CC(N)=O)NC(=O)[C@H]([C@H](O)[C@@H](O)c5ccc(O)c(OS(=O)(=O)O)c5)NC(=O)[C@@H]5C[C@@H](O)CN5C(=O)[C@H]([C@@H](C)O)NC4=O)cc3)no2)cc1 [MICAFUNGIN] (X1-[Orn(4R-OH,5R-OH)]T[Hyp][hTyr(3S-OH,4S-OH,3'-OSO3H)][Gln(3R-OH)][Pro(3S-OH,4S-Me)]; lactam 1-C) | 0.125 µg/mL | 128 µg/mL | 1024 | 0.0625 µg/mL | 32 | 0.125 µg/mL | 8 µg/mL | 64 | 8 µg/mL | 128 | 0.0156 µg/mL | 1 µg/mL | 64 µg/mL | 0.0156 µg/mL | 0.5 µg/mL | 0.0156 µg/mL | 256 | 0.5 µg/mL | 0.5 µg/mL | 256 | MIC50 (Candida parapsilosis [20]): 32 µg/mL; MIC50 (Nakaseomyces glabratus [21]): 1 µg/mL; Ratio (Nakaseomyces glabratus [22]): 64; MIC50 (Candida tropicalis [23]): 0.0156 µg/mL; Ratio (Candida tropicalis [24]): 128; MIC50 (Aspergillus terreus [25]): 0.002 µg/mL; MIC50 (Aspergillus terreus [26]): 0.25 µg/mL; MIC50 (Aspergillus niger [27]): 0.002 µg/mL; MIC50 (Aspergillus niger [28]): 0.25 µg/mL; MIC50 (Aspergillus fumigatus [29]): 2 µg/mL; MIC50 (Aspergillus fumigatus [30]): 0.5 µg/mL; MIC50 (Aspergillus fumigatus [31]): 0.001 µg/mL; MIC50 (Aspergillus fumigatus [32]): 1 µg/mL |
| CC[C@H](C)C[C@H](C)CCCCCCCCC(=O)N[C@H]1C[C@@H](O)[C@@H](NCCN)NC(=O)[C@@H]2[C@@H](O)CCN2C(=O)[C@H]([C@H](O)CCN)NC(=O)[C@H]([C@H](O)[C@@H](O)c2ccc(O)cc2)NC(=O)[C@@H]2C[C@@H](O)CN2C(=O)[C@H]([C@@H](C)O)NC1=O [CASPOFUNGIN] | 128 µg/mL | 128 µg/mL | 1 | 0.5 µg/mL | 1 | 0.5 µg/mL | 2 µg/mL | 4 | 4 µg/mL | 8 | 0.25 µg/mL | 0.25 µg/mL | 4 µg/mL | 0.5 µg/mL | 0.5 µg/mL | 0.25 µg/mL | 4 | 1 µg/mL | 1 µg/mL | 8 | MIC50 (Candida parapsilosis [20]): 8 µg/mL; MIC50 (Nakaseomyces glabratus [21]): 0.5 µg/mL; Ratio (Nakaseomyces glabratus [22]): 1; MIC50 (Candida tropicalis [23]): 0.5 µg/mL; Ratio (Candida tropicalis [24]): 4; MIC50 (Aspergillus terreus [25]): 0.5 µg/mL; MIC50 (Aspergillus terreus [26]): 0.5 µg/mL; MIC50 (Aspergillus niger [27]): 0.0004 µg/mL; MIC50 (Aspergillus niger [28]): 0.25 µg/mL; MIC50 (Aspergillus fumigatus [29]): 128 µg/mL; MIC50 (Aspergillus fumigatus [30]): 128 µg/mL; MIC50 (Aspergillus fumigatus [31]): 1 µg/mL; MIC50 (Aspergillus fumigatus [32]): 128 µg/mL |
